Experimental data taken from ChEMBL document CHEMBL1201862, “PubChem BioAssay data set” (2004).
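Growth conditions: 96-well plates. Treatment: test compound, 48 hours, 5 concentrations. Analysis: linear interpolation between bracketing concentrations; unreached endpoints set to highest concentration. GI50 marks 50% less growth.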 Activity calls are given as the source filed them. Cut-off read from the data, not from the text of the source: active = GI50 up to about 1.1 µM and inactive = higher.

Experiments:
Assay in all cases: NCI-60 cell line screen, 48 h
[1] = test system: KM12
[2] = test system: MCF7
[3] = test system: PC-3
[4] = test system: HOP-92
[5] = test system: ACHN
[6] = test system: 786-0
[7] = test system: SNB-19
[8] = test system: UACC-257
[9] = test system: EKVX
[10] = test system: NCI/ADR-RES
[11] = test system: SK-OV-3
[12] = test system: NCI-H23
[13] = test system: SF-539
[14] = test system: UACC-62
[15] = test system: A498
[16] = test system: BT-549
[17] = test system: HT-29
[18] = test system: MDA-N
[19] = test system: U-251
[20] = test system: Malme-3M
[21] = test system: NCI-H226
[22] = test system: COLO 205
[23] = test system: RPMI-8226
[24] = test system: DU-145
[25] = test system: T47D
[26] = test system: OVCAR-5
[27] = test system: M14
[28] = test system: SNB-75
[29] = test system: SK-MEL-28
[30] = test system: CCRF-CEM
[31] = test system: CAKI-1
[32] = test system: MDA-MB-231
[33] = test system: SK-MEL-5
[34] = test system: UO-31
[35] = test system: A549
[36] = test system: MOLT-4
[37] = test system: K562
[38] = test system: NCI-H460
[39] = test system: LOX IMVI
[40] = test system: OVCAR-8
[41] = test system: Hs-578T
[42] = test system: SN12C
[43] = test system: SF-295
[44] = test system: SK-MEL-2
[45] = test system: SF-268
[46] = test system: OVCAR-3
[47] = test system: MDA-MB-435
[48] = test system: HCT-116
[49] = test system: NCI-H522
[50] = test system: SR
[51] = test system: OVCAR-4
[52] = test system: SW-620
[53] = test system: IGROV-1
[54] = test system: TK-10
[55] = test system: HCT-15
[56] = test system: HOP-62
[57] = test system: RXF 393
[58] = test system: HCC 2998
[59] = test system: HL-60

With `COC(=O)c1cc(C)n(CN(Cc2ccccc2)Cn2nc(C(=O)OC)cc2C)n1` the GI50 [1] was > 100 µM (inactive), the GI50 [2] was > 66.5 µM (inactive) and the GI50 [3] was > 65.5 µM (inactive). For the same compound, the GI50 [4] was > 73.5 µM (inactive), the GI50 [5] was > 43.1 µM (inactive) and the GI50 [6] was 68.1 µM (inactive). The GI50 [7] was > 100 µM (inactive), the GI50 [8] was > 100 µM (inactive) and the GI50 [9] was 66.5 µM (inactive). The GI50 [10] was > 100 µM (inactive), the GI50 [11] was > 100 µM (inactive) and the GI50 [12] was > 100 µM (inactive). The GI50 [13] was > 45.9 µM (inactive), the GI50 [14] was > 31.9 µM (inactive) and the GI50 [15] was > 100 µM (inactive). The GI50 [16] was > 100 µM (inactive), the GI50 [17] was > 52.7 µM (inactive) and the GI50 [18] was > 92.5 µM (inactive). The GI50 [19] was > 100 µM (inactive), the GI50 [20] was > 100 µM (inactive) and the GI50 [21] was > 100 µM (inactive). For the same compound, the GI50 [22] was > 46.9 µM (inactive), the GI50 [23] was > 41 µM (inactive) and the GI50 [24] was > 62.1 µM (inactive). The GI50 [25] was > 48.3 µM (inactive), the GI50 [26] was > 82.2 µM (inactive) and the GI50 [27] was > 100 µM (inactive). For the same compound, the GI50 [28] was > 27.2 µM (inactive), the GI50 [29] was > 81.5 µM (inactive) and the GI50 [30] was 17.1 µM (inactive). For the same compound, the GI50 [31] was > 69.2 µM (inactive), the GI50 [32] was > 100 µM (inactive) and the GI50 [33] was 99.1 µM (inactive). The GI50 [34] was > 46.1 µM (inactive), the GI50 [35] was > 100 µM (inactive) and the GI50 [36] was > 100 µM (inactive). For the same compound, the GI50 [37] was > 100 µM (inactive), the GI50 [38] was > 100 µM (inactive) and the GI50 [39] was > 100 µM (inactive). The GI50 [40] was > 84.1 µM (inactive), the GI50 [41] was > 100 µM (inactive) and the GI50 [42] was > 100 µM (inactive). The GI50 [43] was > 79.8 µM (inactive), the GI50 [44] was > 100 µM (inactive) and the GI50 [45] was > 89.9 µM (inactive). The GI50 [46] was > 100 µM (inactive), the GI50 [47] was > 100 µM (inactive) and the GI50 [48] was > 43 µM (inactive). For the same compound, the GI50 [49] was > 100 µM (inactive), the GI50 [50] was 0.873 µM (active) and the GI50 [51] was > 64.1 µM (inactive). The GI50 [52] was > 46.9 µM (inactive), the GI50 [53] was > 66.1 µM (inactive) and the GI50 [54] was > 100 µM (inactive). The GI50 [55] was greater than 40.7 µM, the GI50 [56] was > 100 µM (inactive) and the GI50 [57] was > 53.7 µM (inactive).

In the case of `COc1ccc2nc3n(c2c1)C(c1c(F)cccc1F)SC3` (configuration not stated), the GI50 [1] is reported as 40.2 µM (inactive), the GI50 [2] is reported as 32 µM (inactive) and the GI50 [3] is reported as 29.7 µM (inactive). The GI50 [4] was 51.1 µM (inactive), the GI50 [5] was 34 µM (inactive) and the GI50 [6] was 39.6 µM (inactive). The GI50 [7] was 20.8 µM (inactive), the GI50 [8] was > 100 µM (inactive) and the GI50 [58] was 78 µM (inactive). The GI50 [9] was 18.9 µM (inactive), the GI50 [59] was 23.3 µM (inactive) and the GI50 [10] was 19.1 µM (inactive). For the same compound, the GI50 [11] was > 100 µM (inactive), the GI50 [12] was 25.9 µM (inactive) and the GI50 [13] was > 100 µM (inactive). The GI50 [14] was 56.9 µM (inactive), the GI50 [15] was 95.3 µM (inactive) and the GI50 [16] was > 100 µM (inactive). For the same compound, the GI50 [17] was 25.7 µM (inactive), the GI50 [18] was 61.4 µM (inactive) and the GI50 [19] was 51.8 µM (inactive). For the same compound, the GI50 [21] was 19.9 µM (inactive), the GI50 [22] was > 100 µM (inactive) and the GI50 [23] was 29.9 µM (inactive). The GI50 [24] was 42.3 µM (inactive), the GI50 [25] was 22.3 µM (inactive) and the GI50 [26] was > 100 µM (inactive). The GI50 [27] was > 100 µM (inactive), the GI50 [28] was 74.6 µM (inactive) and the GI50 [29] was > 100 µM (inactive). The GI50 [30] was 54.1 µM (inactive), the GI50 [31] was 94 µM (inactive) and the GI50 [32] was > 100 µM (inactive). The GI50 [33] was 33.2 µM (inactive), the GI50 [34] was 51.9 µM (inactive) and the GI50 [35] was 49 µM (inactive). For the same compound, the GI50 [36] was 32.4 µM (inactive), the GI50 [37] was 50.4 µM (inactive) and the GI50 [38] was 35 µM (inactive). For the same compound, the GI50 [39] was 47.3 µM (inactive), the GI50 [40] was 36.6 µM (inactive) and the GI50 [41] was 22.3 µM (inactive). The GI50 [42] was > 100 µM (inactive), the GI50 [43] was 38.6 µM (inactive) and the GI50 [44] was 11.1 µM (inactive). The GI50 [45] was 29 µM (inactive), the GI50 [46] was 28.6 µM (inactive) and the GI50 [47] was 39.1 µM (inactive). For the same compound, the GI50 [48] was 25.4 µM (inactive), the GI50 [50] was 37.9 µM (inactive) and the GI50 [51] was 64.4 µM (inactive). The GI50 [52] was 64.6 µM (inactive), the GI50 [53] was 40.1 µM (inactive) and the GI50 [54] was 77.4 µM (inactive). For the same compound, the GI50 [55] was 43.2 µM, the GI50 [56] was 61.7 µM (inactive) and the GI50 [57] was > 100 µM (inactive).

With `O=c1c(Cc2ccc(Cc3c(O)oc4ccccc4c3=O)cc2)c(O)oc2ccccc12` the GI50 [2] was > 100 µM (inactive), the GI50 [3] was > 100 µM (inactive) and the GI50 [4] was > 100 µM (inactive). For the same compound, the GI50 [8] was > 100 µM (inactive), the GI50 [58] was > 100 µM (inactive) and the GI50 [9] was > 100 µM (inactive). The GI50 [59] was > 100 µM (inactive), the GI50 [10] was > 100 µM (inactive) and the GI50 [11] was > 100 µM (inactive). The GI50 [12] was > 100 µM (inactive), the GI50 [13] was > 100 µM (inactive) and the GI50 [14] was > 100 µM (inactive). For the same compound, the GI50 [15] was > 100 µM (inactive), the GI50 [16] was > 100 µM (inactive) and the GI50 [17] was > 100 µM (inactive). For the same compound, the GI50 [18] was > 100 µM (inactive), the GI50 [19] was > 100 µM (inactive) and the GI50 [20] was > 100 µM (inactive). The GI50 [21] was > 100 µM (inactive), the GI50 [22] was > 100 µM (inactive) and the GI50 [24] was > 100 µM (inactive). For the same compound, the GI50 [25] was > 100 µM (inactive), the GI50 [26] was > 100 µM (inactive) and the GI50 [27] was > 100 µM (inactive). For the same compound, the GI50 [28] was > 100 µM (inactive), the GI50 [29] was > 100 µM (inactive) and the GI50 [30] was > 100 µM (inactive). The GI50 [31] was > 100 µM (inactive), the GI50 [32] was > 100 µM (inactive) and the GI50 [33] was > 100 µM (inactive). For the same compound, the GI50 [34] was 42 µM (inactive), the GI50 [35] was > 100 µM (inactive) and the GI50 [36] was > 100 µM (inactive). The GI50 [37] was > 100 µM (inactive), the GI50 [38] was > 100 µM (inactive) and the GI50 [39] was > 100 µM (inactive). The GI50 [40] was > 100 µM (inactive), the GI50 [41] was > 100 µM (inactive) and the GI50 [42] was > 100 µM (inactive). For the same compound, the GI50 [43] was > 100 µM (inactive), the GI50 [44] was > 100 µM (inactive) and the GI50 [45] was > 100 µM (inactive). The GI50 [46] was > 100 µM (inactive), the GI50 [47] was > 100 µM (inactive) and the GI50 [48] was > 100 µM (inactive). For the same compound, the GI50 [50] was > 100 µM (inactive), the GI50 [51] was > 100 µM (inactive) and the GI50 [52] was > 100 µM (inactive). The GI50 [53] was > 100 µM (inactive), the GI50 [54] was > 100 µM (inactive) and the GI50 [55] was greater than 100 µM. For the same compound, the GI50 [56] was > 100 µM (inactive) and the GI50 [57] was > 100 µM (inactive).
